According to US6180385A (priority 1996, dated 2001):

Columns and labels:
[1] = test system: L proteinase; settings: cited from earlier work
[2] = target: T1, Lb proteinase (Foot-and-mouth disease virus serotype O, UniProt P03305); type: biochemical, FMDV
[3] = target: T1, Lb proteinase

T1 sequence (P03305 29-201 limits assumed): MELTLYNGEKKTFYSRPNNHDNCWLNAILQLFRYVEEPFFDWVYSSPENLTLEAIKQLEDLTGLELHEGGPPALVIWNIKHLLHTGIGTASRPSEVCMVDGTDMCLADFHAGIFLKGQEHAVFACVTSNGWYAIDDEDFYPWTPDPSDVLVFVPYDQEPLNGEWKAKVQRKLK

Molecule	cleavage of peptide in the absence of SDS (controls) [3]	peptide cleaved by Lb (qualitative) [3]	other results
CC(C)CC(NC(=O)C1OC1C(=O)O)C(=O)NCCCCN=C(N)N (stereo not shown) [Peptide E64, E64]	–	–	effect on the L proteinase [1]: inhibition
CCCCCCCCCCCCOS(=O)(=O)O [SDS]	–	–	cleavage of peptide LVP4-1 by Lb proteinase in the presence of inhibitor [2]: No cleavage; inhibition of cleavage of peptides P89, p220-4 and p220-6 by Lb proteinase [2]: complete inhibition
Ac-T*R*P I I T T A G P S D M Y V H-NH2 [Peptide P89]	efficient cleavage	cleaved	–
G R T T L S T R*G P P R G G P G [p220-4]	efficient cleavage	cleaved	–
T P S F A N L G*R T T L S T R G [p220-6]	efficient cleavage	cleaved	FMDV Lb cleavage site on the peptide (* indicates cleavage site) [3]: G*R
